# Reference: a melting point compilation (Tetko et al.; mined from patent text by program, amines drawn as free bases though some values may be those of a salt)
row,Compound,melting point
1,c1ccc(CC(Cc2ccccc2)(c2nnn[nH]2)c2nnn[nH]2)cc1,228 to 230 °C
2,COc1cc(CN(C)c2nn(-c3ccccc3)cc2C=O)ccc1OCc1nc(-c2ccco2)oc1C,101 to 102 °C
3,C1=CC2=c3ccccc3=NC2=C1,143 to 145 °C
4,CNC(=O)N1CCN(C(=O)Cc2ccc(Cl)c(Cl)c2)C(CN2CCC(O)C2)C1 (stereo unspecified),57 °C
5,Cc1cccnc1-c1ccc(Cl)cc1Cl,38 to 42.8 °C
6,CCc1cc2c(cc1OC(C)=O)CCC1C2CCC2(C)C(C#N)=CCC12 (stereo unspecified),176 to 177 °C
7,CCCN(C=Nc1ccc2nnc(-c3ncc([N+](=O)[O-])n3C)n2n1)CCC,155 to 157 °C
8,O=C(O)c1ccc(NCc2ccccc2)cc1,165 to 168 °C
9,CCOC(=O)C(=O)CC(=O)c1cn(Cc2ccc(F)cc2)c2cc(F)ccc2c1=O,151 to 152 °C
10,COc1ccc(OC)c(S(=O)(=O)n2c(CCCC(=O)O)cc3cc(Cl)ccc32)c1,201 to 209 °C
11,COC(=O)c1ccc2c(c1)N(C(=O)c1ccc(C3CCCCC3)cc1)Cc1cccn1C2,174 to 176 °C
12,CCCN(CCC)c1nccc2ccc(C(=O)N[C@@H](Cc3cc(F)cc(F)c3)[C@H](O)CNCc3cccc(CC)c3)cc12,142 to 151 °C
13,CS(=O)(=O)N(CCc1ccccc1)CC(O)(Cn1cncn1)c1ccc(Cl)cc1Cl (stereo unspecified),138 to 140 °C
14,N#CC(N)=C(N)Sc1ccc(Cl)cc1,107 to 108 °C
15,Cn1c(CC(=O)O)ccc1C(=O)c1ccc([N+](=O)[O-])cc1,192 to 195 °C
16,Cc1cnc(C(=O)O)c(-c2ccc(Cl)c(C(=O)NCC34CC5CC(CC(C5)C3)C4)c2)c1,125 to 130 °C
17,C#CCOC(=O)Oc1ccc(Cc2ccc(OC(=O)OCC#C)cc2)cc1,60 °C
18,CC1(C)Oc2ccc(OC(F)(F)F)cc2[C@@H](N2Cc3ccccc3C2=O)[C@@H]1O (relative stereo),212 to 213 °C
19,Nc1sc(CC(O)CO)cc1C(=O)c1ccccc1Cl (stereo unspecified),136 to 137 °C
20,C#CCC1C(=O)NOc2cc(F)c(NC(=S)N3CCCC=N3)cc21 (stereo unspecified),151 to 155 °C
21,Oc1cccc(Oc2ccc(Cl)nn2)c1,185 to 187 °C
22,COc1ccc2c3c1CCCN3C(C)(C)C=C2C,87 to 88 °C
23,CCOC(=O)c1cc(F)c(C2CNCC2NC(=O)OC(C)(C)C)cc1F (stereo unspecified),98 to 100 °C
24,CCCCOc1c(CNC(=O)OC(C)(C)C)n(CC(C)C)c(=O)c2ccc(-c3nc(C)c(C(N)=O)s3)cc12,234 °C

row,Compound,melting point
1,CCN(CC)C(=O)c1ccc(OCOC)cc1-c1ccccc1,63 to 64 °C
2,COC=C(C#N)Cc1ccc(OC)c(OC)c1,64 to 65 °C
3,CN1CCN(c2nc3ccccc3nc2Cc2ccccc2)CC1,89 to 90 °C
4,O=[N+]([O-])c1ccc(CCN2CCN(c3ccc([N+](=O)[O-])cc3)CC2)cc1,143 to 145 °C
5,CCNCC1(C)CN(c2c(F)cc3c(=O)c(C(=O)O)cn4c3c2OC[C@H]4C)C1,242 to 245 °C
6,NS(=O)(=O)c1ccc(N2N=C(C(F)(F)F)CC2c2ccc(F)cc2F)cc1 (stereo unspecified),161 to 162 °C
7,CC(=O)OCC(C(OC(C)=O)c1ccc(Br)cc1)[N+](=O)[O-] (stereo unspecified),81 to 82 °C
8,O=C(c1ccc2ccn(CCOc3ccc(CC(OCC(F)(F)F)C(=O)O)cc3)c2n1)C1CC1 (stereo unspecified),113 °C
9,CC(C)NC(=O)c1ccc2[nH]cc(CCNC(=O)OCc3ccccc3)c2c1,136 to 137 °C
10,CCOc1ccc(OCc2ccccc2OCc2nc(-c3ccccc3)oc2C)cc1CCC(=O)O,146 to 147 °C
11,CC(=O)c1cccc2cc[nH]c12,65 to 66 °C
12,CC(C)(C)OC(=O)NC1CCN(Cc2ccccc2)CC1,112 to 120 °C
13,O=C(NNC(=S)NNC(=O)c1ccccc1)c1ccccc1,177 to 179 °C
14,CCC(C)Oc1ccc(OCCNC(=O)C2CC2)cc1 (stereo unspecified),65 to 68 °C
15,O=C(O)Cc1ccc2oc(-c3ccc(Cl)cc3)nc2c1,241 to 242 °C
16,O=C(CN1C(=O)C(c2ccccc2)c2ccccc21)N1CCOCC1 (stereo unspecified),153 to 154 °C
17,CCc1cccc(C)c1COc1cc(C(=O)OC)cc2c1nc(C)n2C,157 °C
18,COc1ccc(C(=O)C2CCN(C(C)=O)CC2)c(OC)c1,132 to 134 °C
19,Oc1ncnc2c1nc(CC1CCN(CC3COc4ccccc4O3)CC1)n2Cc1ccc(F)cc1 (stereo unspecified),201 °C
20,COc1ccc2c(c1)CCC1C2CCC2(C)C(=O)CC(C)C12 (stereo unspecified),127 to 129 °C
21,O=C(Nc1ccc(Cl)c2c(-n3ccnc3)ccnc12)c1c(Cl)cccc1Cl,259 to 263 °C
22,COC(=O)N=C(NC(=O)OC)SC,99 to 101 °C
23,COC(=O)C(Cc1ccc(-c2nc3ccc(OC)cc3n2C)cc1)N=[N+]=[N-] (stereo unspecified),105 to 107 °C
24,O=C1SC[C@H]2[C@@H]1N(Cc1ccccc1)C(=O)N2Cc1ccccc1 (relative stereo),118 to 119 °C

row,Compound,melting point
1,Cc1ccc(-c2cc(C)ccc2C=CC#Cc2ccc(C(=O)O)cc2)cc1,71 to 73 °C
2,O=C1OC2CCSC2Cn2cccc21 (stereo unspecified),167 to 168 °C
3,CCOc1c(OC)cc(C(=O)OC)c(-c2c(C(=O)OC)cc(OC)c3c2OCO3)c1OCC,107 to 108 °C
4,c1coc(CNCc2ccc(-c3cc4ncnc(Nc5ccc6[nH]ccc6c5)c4s3)cc2)c1,125 to 134 °C
5,O=C(O)C1=Cc2c(F)cccc21,81 to 83 °C
6,Cn1nc2ccccc2c1C(=O)NC1CCN(CCCc2ccc(F)cc2)CC1,162 to 165 °C
7,COC(=O)c1cccc(OCc2ccc(Cl)c(Cl)c2)c1,87 to 88 °C
8,O=S(=O)(Nc1ccccc1O)c1ccc2ccccc2c1,136 °C
9,Cc1nnsc1C(=O)Nc1ccccc1C(=O)O,223 °C
10,COCOc1c(NC(=O)NCc2cccnc2)cc(OC)cc1C(C)(C)C,108 to 109 °C
11,CC(C)c1ccc2c(c1)c(SC(C)(C)C)c(CC(C)(C)C(=O)O)n2Cc1ccc(Cl)cc1,189 to 192 °C
12,CCOC(=O)C(=O)Nc1cc2[nH]c(=O)c(=O)n(C3CCCCC3)c2cc1[N+](=O)[O-],260 °C
13,O=C1CCN(Cc2ccc(C(F)(F)F)cc2)CC1C(c1ccc(F)cc1)c1ccc(F)cc1 (stereo unspecified),126 to 127 °C
14,Cc1ccc(C(=O)NC(NC(=S)Nc2cccc(F)c2)C(F)(F)F)cc1 (stereo unspecified),205 to 206 °C
15,CC=Cc1ccc2c(c1)C(=O)N(c1ccc(C(C)C(=O)OC(C)(C)C)cc1)C2 (stereo unspecified),125 to 130 °C
16,Cc1ccc(C(=O)NN(C(=O)c2cc(Cl)sc2Cl)C(C)(C)C)cc1,163 to 165 °C
17,Cc1nnc2n1-c1sc(CCC(=O)N3CCCCC3)cc1C(c1ccccc1Cl)=NC2C (stereo unspecified),157 to 160 °C
18,Cc1sc(-c2ccccc2)nc1COc1ccc(COc2nn(C)cc2CC(=O)O)cn1,140 to 141 °C
19,CC1CC(=O)Nc2nc(C#N)c3ncccc3c21 (stereo unspecified),> 300 °C
20,Cc1nc2ccc3c(c2o1)C(CCNC(=O)C1CC1)CC3 (stereo unspecified),134 to 137 °C
21,Cc1ccc(CCCCc2ccc(C(=O)C[C@@H](C)CC(=O)O)s2)cc1,94 °C
22,CC(C)(C)OC(=O)CN1CC(c2cccs2)SCC(N2C(=O)c3ccccc3C2=O)C1=O (stereo unspecified),151 to 152 °C
23,Nc1ccc(Sc2ccccc2)cc1,99 °C
